Tests used:
Format in all cases: cell-based
[1] = test system: chick periosteal osteogenesis (CPO) cultures; assay: RT-PCR mRNA levels of bone proteins (AP, BSP, collagen type I, OPN) in CPO cultures
Procedure: (§1) For the purposes of this investigation, the effects of a potent aryl hydrocarbon, TCDD (2,3,7,8-tetrachlorodibenzo-p-dioxin or dioxin) on the early events occurring during osteogenesis were determined. The CPO model traverses a number of phases of osteogenesis. Therefore, it was possible to design temporal or “window” experiments in order to determine the phases of osteogenesis that were sensitive to TCDD and/or resveratrol. […] All cultures were maintained for the entire 6-day period. The compounds were administered over four different temporal phases, as outlined below in the time-line diagram: a) days 0-6; b) days 0-2; c) days 2-4 or d) days 4-6 (Note: all cultures were stopped at 6 days). Results were compared to e) vehicle alone over days 0-6. [drawing 1]
The isolation of total RNA from periosteal cultures to determine affect of TCDD on message levels of bone proteins was accomplished using the QIAGEN Rneasy® kit and QIAShredder® (Hilden, Germany) according to the manufacturer's instructions. Total RNA (2 μg) was reverse transcribed using SuperScript II™ RNase H^− Reverse Transcriptase (Gibco BRL, City Country). PCR reactions were performed in […] reactions at a cycle number ensuring a linear amplification profile (BSP, 5 min at 94° C., 30 cycles [of 20 sec at 94° C., 20 sec at 55° C., 20 sec at 72° C.]; Collagen 5 min at 94° C., 30 cycles [of 20 sec 94° C. 20 sec 58° C., 20 sec 72° C.]; AP 5 min at 94° C., 30 cycles [of 20 sec 94° C., 20 sec 59° C., 20 sec 72° C.]; OPN 5 min at 85° C., 5 min at 94° C., 25 cycles [20 sec at 94° C., 20 sec at 60° C., 20 sec at 72° C.] 7 min at 72° C.). The oligonucleotides for BSP (sense: 5′-[…]-3′; antisense: 5′-[…]-3′) AP (sense: 5′-[…]-3′; antisense: 5′-[…]-3′), Collagen (sense: 5′-[…]-3′; antisense: 5′-[…]-3′); OPN (sense 5′-[…]-3′; antisense 5′-[…]-3′) were synthesized by Life Technologies (Gibco BRL, Rockville, Md.). PCR products were electrophoresed on 1.5 (wt/vol) % agarose gels with 0.1 μg/ml ethidium bromide. The gels were visualized on an UV transilluminator and photographed using 667 Polaroid film. The inverse images of the photographs were analyzed by densitometry. All values were normalized for the internal control, β-actin.

[2] = test system: chick periosteal osteogenesis (CPO) cultures; assay: Newly synthesized 14C-labeled collagen type I in CPO cultures
Procedure: as §1
Radiolabeled collagen was measured in CPO cultures incubated with ^14C-glycine (Amersham, 59 mCi/mMole) at a concentration of 10 μci/ml media in each group over days 4-6. The cultures were hydrolyzed in 0.1 ml of 0.1N HCl and vortexed. After 15 minutes, the supernatant was removed and saved in a 2 ml eppendorf tube. The culture was transferred to a 0.5 ml eppendorf tube containing 0.1 ml of pepsin (50 μg/ml in 0.1% glacial acetic acid) for further digestion of labeled collagen. These were maintained in a 15° C. water bath for 5 hours, vortexing the samples every hour. The supernatant was transferred to a new 0.5 ml eppendorf tube and was then lyophilized overnight. The amount of radiolabeled collagen was determined by gel electrophoresis as described hereunder. The lyophilized samples were reconstituted with 0.1 ml of a solution made of 70% sample buffer (10 mM Tris.HCl and 1 mM EDTA, pH 8.0) (Sigma-Aldrich Canada Ltd., Oakville, Canada), 2.5% SDS (Sigma), 5% β-mercaptoethanol (Sigma) and 0.01% bromophenol-blue (Sigma). […]
Fluorography was used to analyze the amount of newly synthesized ^14C-labeled collagen in each sample. […] The intensity of the resultant bands on the film was quantified using a laser densitometer to give a measure of the amount of newly synthesized collagen in each sample.

[3] = test system: rat bone marrow cell line (RBMCL); assay: APA in rat bone marrow cell line (RBMCL)
rat bone marrow cultures = assay: APA in rat bone marrow cultures treated with BaP; conditions: resveratrol (10^−6M) added with BaP
Procedure: In this experiment, the effects of the aryl hydrocarbon, benzo-a-pyrene (BaP) on the early events occurring during osteogenesis were determined. Ten-day old rat bone marrow cultures were treated with increasing concentrations of BaP. The effect of this treatment was monitored by APA as set out above.

[4] = resveratrol 4×10^−8M to 3×10^−5M with TCDD

SMILES | reduction in mRNA for BSP ([1]; TCDD, p<0.05) | reduction of mRNA levels for OPN ([1]; TCDD, p<0.05) | reduction of mRNA levels for type I collagen in comparison to control ([1]; TCDD, p<0.05) | reduction of message levels for AP in comparison to control ([1]; TCDD, p<0.05) | decrease in newly synthesized collagen type I levels ([2]; 10^−9M TCDD alone, p>0.05) | inhibition of osteogenic differentiation (APA) ([3]; TCDD, 6 day cultures, in comparison to CPO and RBMC) | reversal of BaP's inhibitory effect on alkaline phosphatase (rat bone marrow cultures) | reversal of TCDD inhibition of BSP mRNA ([1]; TCDD with resveratrol) | mRNA levels for OPN ([1]; both TCDD and resveratrol) | mRNA levels for Type I collagen ([1]; both TCDD and resveratrol, versus control) | message for BSP ([1]; resveratrol alone) | message for collagen ([1]; resveratrol alone) | newly synthesized collagen type I levels ([2]; 10^−6M resveratrol alone, compared to vehicle) | newly synthesized collagen type I level ([2]; co-treatment with TCDD and resveratrol, versus TCDD alone) | APA in comparison to control [3, 4] | inhibition of TCDD-mediated inhibition of osteoblastic differentiation (APA) [3, 4]
Clc1cc2c(cc1Cl)Oc1cc(Cl)c(Cl)cc1O2 [TCDD, 2,3,7,8-tetrachlorodibenzo-p-dioxin] | ~4 fold | about 40% | 50% | about 50% | about 30% | lower dose of TCDD was able to inhibit osteogenic differentiation | – | – | – | – | – | – | – | – | – | –
Oc1ccc(C=Cc2cc(O)cc(O)c2)cc1 [resveratrol, 3,5,4′-trihydroxystilbene] | – | – | – | – | – | – | reversal of BaP's inhibitory effect | reversed completely | restored | identical levels | partially down-regulate | partially down-regulate | no effect | not significantly different | appeared to stimulate APA | able to inhibit TCDD-mediated inhibition of osteoblastic differentiation

Reference: patent publication US6716883B1, “Composition useful to treat periodontal disease” (priority 1998, dated 2004)
